# Experimental data published in patent US11780826B2 (Amgen Inc., priority 2017, dated 2023).
# Tested on: Bovine cardiac myofibrils
# Assay: In vitro model of dose-dependent myofibril ATPase modulation (AC1.4, pyruvate kinase/lactate dehydrogenase-coupled ATPase assay at pCa25)
# Assay type: biochemical
# Settings: concentration at which ATPase activity was 1.4-fold higher than the bottom of the dose curve, mean of a minimum of two independent tests
# Summary of the method: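 Coupled-enzyme ATPase on bovine heart myofibrils, 1 mM ATP, EGTA/CaCl2 buffered; 340 nm readout.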
row,AC1.4 [µM],Structure (SMILES)
1,4.9395,"CS(=O)(=O)c1cc(C(=O)N2CCC[C@@H]2C(=O)N[C@@H](c2ccc(C(F)(F)F)cc2F)C2CC2)ccn1 [Example 675, N-((R)-cyclopropyl(2-fluoro-4-(trifluoromethyl)phenyl)methyl)-1-((2-(methylsulfonyl)-4-pyridinyl)carbonyl)-D-prolinamide]"
2,4.59,"CS(=O)(=O)c1cccc(C(=O)N2[C@@H](C(=O)N[C@@H](c3ccc(C(F)(F)F)cc3F)C3(F)COC3)C[C@H]3C[C@H]32)c1 [Example 676, (1R,3R,5R)-N-((S)-(3-fluoro-3-oxetanyl)(2-fluoro-4-(trifluoromethyl)phenyl)methyl)-2-(3-(methylsulfonyl)benzoyl)-2-azabicyclo[3.1.0]hexane-3-carboxamide]"
3,4.987,"CN(C)S(=O)(=O)c1cccc(C(=O)N2CCCCC2C(=O)NCc2ccc(C(F)(F)F)cc2)c1 (centres unmarked) [Example 677, 1-(3-(N,N-dimethylsulfamoyl)benzoyl)-N-(4-(trifluoromethyl)benzyl)piperidine-2-carboxamide]"
4,4.993,"CN(C)S(=O)(=O)c1cccc(C(=O)N2CCC[C@@H]2C(=O)N[C@H](CO)c2ccc(C(F)(F)F)cc2)c1 [Example 678, 1-(3-(dimethylsulfamoyl)benzoyl)-N-((1S)-2-hydroxy-1-(4-(trifluoromethyl)phenyl)ethyl)-D-prolinamide]"
5,5.023,"O=C(NCc1ccc(C(F)(F)F)cc1)[C@H]1CCCN1C(=O)[C@H]1CCCN(S(=O)(=O)N2CC(n3cncn3)C2)C1 [Example 679, 1-(((3S)-1-((3-(1H-1,2,4-triazol-1-yl)-1-azetidinyl)sulfonyl)-3-piperidinyl)carbonyl)-N-(4-(trifluoromethyl)benzyl)-D-prolinamide]"
6,5.0333,"O=C(N[C@@H](c1ccc(C(F)(F)F)cc1F)C1CC1)[C@H]1C[C@H]2C[C@H]2N1C(=O)c1cncc(C(F)(F)F)c1 [Example 680, (1R,3R,5R)-N-((R)-cyclopropyl(2-fluoro-4-(trifluoromethyl)phenyl)methyl)-2-((5-(trifluoromethyl)-3-pyridinyl)carbonyl)-2-azabicyclo[3.1.0]hexane-3-carboxamide]"
7,5.0425,"COc1cc(F)cc(CNC(=O)[C@H]2CCCN2C(=O)[C@H]2CCCN(S(=O)(=O)N3CC(C#N)C3)C2)c1 [Example 681, 1-(((3S)-1-((3-cyano-1-azetidinyl)sulfonyl)-3-piperidinyl)carbonyl)-N-(3-fluoro-5-methoxybenzyl)-D-prolinamide]"
8,4.606,"CS(=O)(=O)c1cncc(C(=O)N2C[C@H](C(F)F)C[C@@H]2C(=O)N[C@@H](c2ccc(C(F)(F)F)cc2F)C2CC2)c1 [Example 682, (4R)-N-((R)-cyclopropyl(2-fluoro-4-(trifluoromethyl)phenyl)methyl)-4-(difluoromethyl)-1-((5-(methylsulfonyl)-3-pyridinyl)carbonyl)-D-prolinamide]"
9,5.096,"CC1(O)CN(S(=O)(=O)N2CCC[C@H](C(=O)N3C[C@@H](F)C[C@@H]3C(=O)NCc3ccc(C(F)(F)F)cc3)C2)C1 [Example 683, (4S)-4-fluoro-1-(((3S)-1-((3-hydroxy-3-methyl-1-azetidinyl)sulfonyl)-3-piperidinyl)carbonyl)-N-(4-(trifluoromethyl)benzyl)-D-prolinamide]"
10,5.1985,"N#CC1CN(S(=O)(=O)N2CCC[C@H](C(=O)N3CCC[C@@H]3C(=O)NCc3ccccc3F)C2)C1 [Example 684, 1-(((3S)-1-((3-cyano-1-azetidinyl)sulfonyl)-3-piperidinyl)carbonyl)-N-(2-fluorobenzyl)-D-prolinamide]"

# Second part, the compound before the results:
row,Structure (SMILES),AC1.4 [µM]
1,"CS(=O)(=O)c1cc(C(=O)N2[C@@H](C(=O)N[C@@H](c3ccc(C(F)(F)F)c(F)c3)C3CC3)C[C@H]3C[C@H]32)ccn1 [Example 665, (1R,3R,5R)-N-((R)-cyclopropyl(3-fluoro-4-(trifluoromethyl)phenyl)methyl)-2-((2-(methylsulfonyl)-4-pyridinyl)carbonyl)-2-azabicyclo[3.1.0]hexane-3-carboxamide]",4.554
2,"Cc1ccc(S(C)(=O)=O)cc1C(=O)N1CCC[C@@H]1C(=O)N[C@@H](c1ccc(C(F)(F)F)cc1F)C1CC1 [Example 666, N-((R)-cyclopropyl(2-fluoro-4-(trifluoromethyl)phenyl)methyl)-1-(2-methyl-5-(methylsulfonyl)benzoyl)-D-prolinamide]",4.7065
3,"O=C(N[C@@H](c1cc(F)c(Cl)cc1F)C1CC1)[C@H]1C[C@H]2C[C@H]2N1C(=O)c1cccc(C(F)(F)F)n1 [Example 667, (1R,3R,5R)-N-((R)-(4-chloro-2,5-difluorophenyl)(cyclopropyl)methyl)-2-((6-(trifluoromethyl)-2-pyridinyl)carbonyl)-2-azabicyclo[3.1.0]hexane-3-carboxamide]",4.708
4,"CCC(NC(=O)[C@H]1CCCN1C(=O)[C@H]1CCCN(S(=O)(=O)N2CC(C)(O)C2)C1)c1ccc(C(F)(F)F)cc1 (stereo partly drawn) [Example 668, (2R)-1-((S)-1-((3-hydroxy-3-methylazetidin-1-yl)sulfonyl)piperidine-3-carbonyl)-N-(1-(4-(trifluoromethyl)phenyl)propyl)pyrrolidine-2-carboxamide]",4.71
5,"CC1(O)CN(S(=O)(=O)N2CCC[C@H](C(=O)N3CCC[C@@H]3C(=O)NCc3ccc(C(F)(F)F)cc3F)C2)C1 [Example 669, N-(2-fluoro-4-(trifluoromethyl)benzyl)-1-(((3S)-1-((3-hydroxy-3-methyl-1-azetidinyl)sulfonyl)-3-piperidinyl)carbonyl)-D-prolinamide]",4.727
6,"C[C@@]1(C(=O)N[C@@H](c2cc(F)c(C(F)(F)F)cc2F)C2CC2)CCN1C(=O)c1cccc(S(C)(=O)=O)c1 [Example 670, (2S)-N-((R)-cyclopropyl(2,5-difluoro-4-(trifluoromethyl)phenyl)methyl)-2-methyl-1-(3-(methylsulfonyl)benzoyl)-2-azetidinecarboxamide]",4.735
7,"N#CC1CN(S(=O)(=O)c2cccc(C(=O)N3Cc4ccccc4CC3C(=O)NCc3ccc(C(F)(F)F)cc3)c2)C1 (centres unmarked) [Example 671, 2-(3-((3-cyanoazetidin-1-yl)sulfonyl)benzoyl)-N-(4-(trifluoromethyl)benzyl)-1,2,3,4-tetrahydroisoquinoline-3-carboxamide]",4.776
8,"COc1ccc(CNC(=O)[C@H]2CCCN2C(=O)[C@H]2CCCN(S(=O)(=O)N3CC(C#N)C3)C2)cc1C [Example 672, 1-(((3S)-1-((3-cyano-1-azetidinyl)sulfonyl)-3-piperidinyl)carbonyl)-N-(4-methoxy-3-methylbenzyl)-D-prolinamide]",4.8355
9,"CS(=O)(=O)c1cccc(C(=O)N2CCC[C@@H]2C(=O)N[C@@H](c2ccc(C(F)(F)F)cc2F)C2(F)COC2)c1 [Example 673, N-((S)-(3-fluoro-3-oxetanyl)(2-fluoro-4-(trifluoromethyl)phenyl)methyl)-1-(3-(methylsulfonyl)benzoyl)-D-prolinamide]",4.897
10,"N#CC1CN(S(=O)(=O)N2CCC[C@H](C(=O)N3CCC[C@@H]3C(=O)NCc3cc(C(F)(F)F)ccc3F)C2)C1 [Example 674, 1-(((3S)-1-((3-cyano-1-azetidinyl)sulfonyl)-3-piperidinyl)carbonyl)-N-(2-fluoro-5-(trifluoromethyl)benzyl)-D-prolinamide]",4.9025
